# Test results reported in article PMC9325861, “Mouse precision-cut liver slices as an ex vivo model to study drug-induced cholestasis” (Archives of Toxicology, 2022).
# Counter-ions that a name gives are not always drawn.
# How the values were obtained:
# [1] = system: Mrp3 (Abcc3); experiment: qRT-PCR gene expression in mouse PCLS: Mrp3; format: cell-based; details: 48 h, in the presence and absence of BAs
# Method: In short, freshly prepared PCLS were transferred to 12-well plates (Greiner bio-one GmbH, Austria), one slice per well.
# (§1) Three PCLS incubated under a given condition were pooled in a 1.5-mL Rnase-free test tube, snap-frozen in liquid nitrogen, and stored at – 80 °C until analysis. RNA was isolated using a FavorPrep Tissue Total RNA Mini Kit (Favorgen, Vienna, Austria). Subsequently, the RNA yield was quantified using a NanoDrop One instrument (Thermo Fisher Scientific, Massachusetts, USA). Isolated RNA was reverse-transcribed to cDNA using a cDNA synthesis kit (Reverse Transcription System, Promega, Benelux B.V.). The cDNA samples were subsequently loaded in the thermal cycler with a program set to 22 °C for 10 min, 42 °C for 15 min, and 95 °C for 5 min.
# qRT-PCR was used to determine the relative mRNA expression levels for the mouse target genes: Bsep (Abcb11), Mrp2 (Abcc2), Mrp3 (Abcc3), Mrp4 (Abcc4), Ntcp (Slc10a1), Fxr (Nr1h4), Cyp7a1 (Cyp7a1), Collagen type 1a1 (Col1a1), Hsp47 (Serpinh1). Primer sequences of the genes tested are given in Supplementary Table S1. QRT-PCR was performed using, the dye, FastStart Universal SYBR Green Master Mix (Roche Diagnostics Netherlands B.V., Almere, the Netherlands) with the ViiA™ 7 Real-Time PCR System (Applied Biosystems, Bleiswijk, the Netherlands). […] Samples were measured in duplicates. […] Results are expressed as log2(fold change).
# [2] = system: Fxr (Nr1h4); experiment: qRT-PCR gene expression in mouse PCLS: Fxr; format: cell-based; details: 48 h, 30 µM CPZ in the presence of the humanized BA mixture
# Method: In short, freshly prepared PCLS were transferred to 12-well plates (Greiner bio-one GmbH, Austria), one slice per well. Each well was filled with 1.3 mL pre-heated (37 ℃) and oxygenated (80%) Williams Medium E (1X, glutaMAX-1), which had been supplemented with 25 mM D-glucose monohydrate and 50 μg/ml Gentamicin (denoted as WME GG). […] The DMSO concentration used was below 0.5% in the incubation medium, equivalent to DMSO concentrations in solutions prepared by dilution of BA stock solutions with WME GG.
# as §1, with “The cDNA samples were subsequently loaded in the thermal cycler with a program set to 22 °C for 10 min, 42 °C for 15 min, and 95 °C for 5 min.” left out
# qRT-PCR was used to determine the relative mRNA expression levels for the mouse target genes: Bsep (Abcb11), Mrp2 (Abcc2), Mrp3 (Abcc3), Mrp4 (Abcc4), Ntcp (Slc10a1), Fxr (Nr1h4), Cyp7a1 (Cyp7a1), Collagen type 1a1 (Col1a1), Hsp47 (Serpinh1). […] Samples were measured in duplicates. […] Results are expressed as log2(fold change).
smiles,measurement,setting,value
"CN(C)CCCN1c2ccccc2Sc2ccc(Cl)cc21 [CPZ, Chlorpromazine hydrochloride]",Mrp3 gene expression,[1],reduces
same,Fxr gene expression,[2],"small, but not significant, increase"
